# Earlier results in US6391849B1, “Method and pharmaceutical composition for disrupting lactation in a mammary gland and for treating and preventing mastitis” (Agricultural Research Organization, The Volcani Center, priority 1999, dated 2002).
# Tested on: mammary gland
# Settings: EGTA introduced into the mammary gland
compound,measurement,value
O=C(O)CN(CCOCCOCCN(CC(=O)O)CC(=O)O)CC(=O)O [EGTA],TJ integrity,transient loss
same,milk yield,transient reduction
